Results taken from patent US9802937B2, “Substituted pyrazolo{4,3-D}pyrimidines as kinase inhibitors” (ORIGENIS GMBH, priority 2011, dated 2017).

Legend:
SYK kinase = target: T1, SYK kinase (Homo sapiens, UniProt P43405); assay: SYK Assay (OMNIA KINASE ASSAY, SOX peptide fluorescence); assay type: biochemical; settings: apparent Ki calculated from the IC50 using the Cheng-Prusoff equation; 1 mM ATP, 30° C.; read-out: SYK Activities: Ki
T1 construct: purchased Invitrogen, Carlsbad
Outline: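 Continuous Omnia assay: SYK phosphorylation of SOX-labelled Tyr 7 peptide (10 µM) with 1 mM ATP and 0.2 mM DTT at 30 °C. Fluorescence (ex 360/em 485 nm) read every 30 s for 30 min. Reaction velocity versus inhibitor concentration gives IC50, converted to apparent Ki by Cheng-Prusoff.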

LRRK2 = LRRK2 (Homo sapiens, UniProt Q5S007); assay: LRRK2-LRRK2 G2019S-Assay (LanthaScreen Eu Kinase Binding Assay); settings: 5 nM LRRK2 or their mutants, 10 nM tracer 236, RT 1 h; read-out: LRRK2 Activities: IC50
Chain of LRRK2 (Q5S007 970-2527 limits assumed): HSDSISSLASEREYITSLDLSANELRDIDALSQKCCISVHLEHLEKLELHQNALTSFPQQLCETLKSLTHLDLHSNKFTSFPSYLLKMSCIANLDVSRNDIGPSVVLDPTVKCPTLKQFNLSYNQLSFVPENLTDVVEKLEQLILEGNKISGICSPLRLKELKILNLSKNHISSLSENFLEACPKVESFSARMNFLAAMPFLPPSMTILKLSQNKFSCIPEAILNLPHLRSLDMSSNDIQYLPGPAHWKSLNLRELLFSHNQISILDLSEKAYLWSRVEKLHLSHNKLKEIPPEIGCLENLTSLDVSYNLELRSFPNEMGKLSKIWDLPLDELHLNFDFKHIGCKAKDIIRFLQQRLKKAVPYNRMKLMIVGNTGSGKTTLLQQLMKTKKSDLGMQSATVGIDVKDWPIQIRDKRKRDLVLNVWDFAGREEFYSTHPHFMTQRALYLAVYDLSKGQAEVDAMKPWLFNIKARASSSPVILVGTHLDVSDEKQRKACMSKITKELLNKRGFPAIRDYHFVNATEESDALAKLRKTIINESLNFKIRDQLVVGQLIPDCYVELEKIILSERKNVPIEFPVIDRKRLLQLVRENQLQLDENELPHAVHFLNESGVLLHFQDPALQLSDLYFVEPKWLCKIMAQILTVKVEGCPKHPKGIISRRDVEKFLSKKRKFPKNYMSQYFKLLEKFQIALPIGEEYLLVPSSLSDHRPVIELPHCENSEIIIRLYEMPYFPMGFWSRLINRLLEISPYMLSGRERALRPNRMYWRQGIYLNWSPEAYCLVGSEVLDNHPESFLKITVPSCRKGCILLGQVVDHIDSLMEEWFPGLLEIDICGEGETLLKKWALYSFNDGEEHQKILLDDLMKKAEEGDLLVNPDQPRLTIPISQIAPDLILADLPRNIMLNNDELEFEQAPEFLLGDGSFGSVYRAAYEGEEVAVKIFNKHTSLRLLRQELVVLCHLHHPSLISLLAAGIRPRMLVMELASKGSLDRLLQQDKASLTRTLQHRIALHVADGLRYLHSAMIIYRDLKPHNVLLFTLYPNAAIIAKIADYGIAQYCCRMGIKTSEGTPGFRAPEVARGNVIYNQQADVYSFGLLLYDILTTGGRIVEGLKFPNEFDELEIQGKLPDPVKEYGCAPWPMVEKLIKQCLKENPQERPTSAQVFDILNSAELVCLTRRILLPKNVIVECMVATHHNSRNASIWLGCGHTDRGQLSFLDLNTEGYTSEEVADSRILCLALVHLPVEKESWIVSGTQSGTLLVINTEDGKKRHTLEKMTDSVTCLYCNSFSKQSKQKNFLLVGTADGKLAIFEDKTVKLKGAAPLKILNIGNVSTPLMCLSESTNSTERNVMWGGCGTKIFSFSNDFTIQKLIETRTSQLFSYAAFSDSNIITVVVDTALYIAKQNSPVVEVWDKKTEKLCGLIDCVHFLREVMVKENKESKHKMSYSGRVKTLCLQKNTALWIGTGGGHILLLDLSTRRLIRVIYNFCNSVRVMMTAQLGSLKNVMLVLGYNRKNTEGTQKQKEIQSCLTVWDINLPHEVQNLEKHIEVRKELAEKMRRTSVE
Outline: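 TR-FRET tracer-displacement binding assay with 5 nM LRRK2 or mutant, 2 nM Eu-anti-GST antibody and 10 nM tracer 236 in kinase buffer A. Incubated 1 h at RT; 665/615 nm emission ratio read (ex 340 nm). IC50 from variable-slope sigmoidal fit.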

MYLK = MYLK (Homo sapiens, UniProt Q15746); assay: MYLK Assay (LanthaScreen Eu Kinase Binding Assay); settings: 5 nM MYLK, 30 nM tracer 236, RT 1 h; read-out: MYLK Activities: IC50
Chain of MYLK (Q15746 whole entry): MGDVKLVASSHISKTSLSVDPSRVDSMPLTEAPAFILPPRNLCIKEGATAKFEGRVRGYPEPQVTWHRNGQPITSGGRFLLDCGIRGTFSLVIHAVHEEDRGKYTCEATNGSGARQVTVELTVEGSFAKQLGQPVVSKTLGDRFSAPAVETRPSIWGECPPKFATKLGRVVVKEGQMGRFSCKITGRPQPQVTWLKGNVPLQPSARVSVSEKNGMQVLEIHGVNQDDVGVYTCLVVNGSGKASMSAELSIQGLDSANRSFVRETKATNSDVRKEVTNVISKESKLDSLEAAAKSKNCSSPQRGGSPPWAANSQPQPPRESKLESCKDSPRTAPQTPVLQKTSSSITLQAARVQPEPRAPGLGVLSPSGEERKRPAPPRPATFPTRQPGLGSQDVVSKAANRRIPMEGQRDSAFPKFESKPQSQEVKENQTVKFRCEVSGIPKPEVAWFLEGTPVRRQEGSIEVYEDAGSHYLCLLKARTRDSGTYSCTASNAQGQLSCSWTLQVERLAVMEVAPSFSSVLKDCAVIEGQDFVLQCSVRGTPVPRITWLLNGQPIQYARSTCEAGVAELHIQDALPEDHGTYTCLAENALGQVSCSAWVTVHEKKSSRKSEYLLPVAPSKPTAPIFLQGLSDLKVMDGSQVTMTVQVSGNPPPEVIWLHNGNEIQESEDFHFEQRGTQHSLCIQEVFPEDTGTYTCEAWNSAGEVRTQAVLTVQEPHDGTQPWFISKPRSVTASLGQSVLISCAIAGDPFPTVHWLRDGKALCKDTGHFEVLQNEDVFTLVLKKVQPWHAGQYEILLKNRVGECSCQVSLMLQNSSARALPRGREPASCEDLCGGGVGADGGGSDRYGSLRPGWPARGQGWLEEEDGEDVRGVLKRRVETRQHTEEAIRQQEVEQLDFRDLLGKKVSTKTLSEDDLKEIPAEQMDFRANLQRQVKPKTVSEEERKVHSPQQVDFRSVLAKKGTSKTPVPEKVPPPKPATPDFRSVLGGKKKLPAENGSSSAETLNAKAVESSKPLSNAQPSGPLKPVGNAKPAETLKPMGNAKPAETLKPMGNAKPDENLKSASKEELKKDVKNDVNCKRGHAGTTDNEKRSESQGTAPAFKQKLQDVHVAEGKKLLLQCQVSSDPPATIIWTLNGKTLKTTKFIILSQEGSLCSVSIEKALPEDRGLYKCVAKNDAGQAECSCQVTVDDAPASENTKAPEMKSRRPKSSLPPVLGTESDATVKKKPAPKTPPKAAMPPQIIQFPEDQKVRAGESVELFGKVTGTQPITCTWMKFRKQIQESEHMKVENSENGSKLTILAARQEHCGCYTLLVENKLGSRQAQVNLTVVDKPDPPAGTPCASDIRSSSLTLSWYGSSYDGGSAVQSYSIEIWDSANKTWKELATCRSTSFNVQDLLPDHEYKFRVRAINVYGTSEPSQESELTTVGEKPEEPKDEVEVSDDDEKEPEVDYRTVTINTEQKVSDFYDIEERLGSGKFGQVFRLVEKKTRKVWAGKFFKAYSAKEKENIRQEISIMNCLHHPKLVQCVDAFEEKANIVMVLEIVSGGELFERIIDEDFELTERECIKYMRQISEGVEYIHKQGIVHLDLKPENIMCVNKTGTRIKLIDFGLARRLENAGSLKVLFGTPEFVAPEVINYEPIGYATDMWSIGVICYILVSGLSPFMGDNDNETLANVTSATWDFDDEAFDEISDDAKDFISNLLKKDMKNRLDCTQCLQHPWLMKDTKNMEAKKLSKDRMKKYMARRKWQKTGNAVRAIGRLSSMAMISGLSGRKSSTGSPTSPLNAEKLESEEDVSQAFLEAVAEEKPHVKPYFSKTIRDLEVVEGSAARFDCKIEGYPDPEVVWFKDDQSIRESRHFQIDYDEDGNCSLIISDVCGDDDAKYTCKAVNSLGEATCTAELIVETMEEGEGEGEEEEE
Description: In the assay LanthaScreen™ Eu Kinase Binding Assay by Invitrogen Corporation (Carlsbad) the effect of invention of a compound on the phosphorylation is determined by measurement of fluorescence intensity emission ratio based on the binding and displacement of a proprietary, Alexa Fluor® 647-labeled, ATP-competitive kinase inhibitor scaffold (kinase tracer) to the kinase of interest as described above.
To the wells of an 384 well small volume plate (Greiner, Frickenhausen) are added (i) the compound under test in 5% is DMSO/distilled water (5 μl), (ii) 5 μl of the kinase antibody mixture resulting in a final concentration 5 nM MYLK, 2 nM EU-Anti-GST antibody in 1× kinase buffer A. The reaction was started with addition of (iii) 5 μl resulting in a final concentration of 30 nM tracer 236. The assay plate was incubated at RT for 1 h and fluorescence intensity readings were collected using a TECAN M1000 at two wavelengths of λex 340/λem 615 nm and λex 340/λem 665 nm with a delay time of 100 μs and an integration time of 200 μs after 60 minutes. The emission ratio was calculated by division of the acceptor/tracer emission ([…]) by the antibody/donor emission ([…]). The inhibitor concentration was plotted versus the emission ratio to determine the IC50 using XLFit 5.0 (IDBS, Guildford) to fit to a sigmoidal dose response curve with a variable slope.

## O=C1COc2ccc(Nc3nc(-c4ccncc4)nc4cn[nH]c34)cc2N1 [Example #21, 6-((5-(pyridin-4-yl)-1H-pyrazolo[4,3-d]pyrimidin-7-yl)amino)-2H-benzo[b][1,4]oxazin-3(4H)-one]
SYK kinase
  Ki: 100 to 1000 nM
LRRK2
  IC50: 100 to 1000 nM
MYLK
  IC50: < 5000 nM

## COc1ccc(-c2nc(Nc3ccc(N4CCN(C)CC4)cc3)c3[nH]ncc3n2)cc1OC [Example #34, 5-(3,4-dimethoxyphenyl)-N-(4-(4-methylpiperazin-1-yl)phenyl)-1H-pyrazolo[4,3-d]pyrimidin-7-amine]
SYK kinase
  Ki: < 10 nM
LRRK2
  IC50: 100 to 1000 nM
MYLK
  IC50: < 5000 nM

## CN1CCN(c2ccc(Nc3nc(-c4ccccc4)nc4cn[nH]c34)cc2)CC1 [Example #35, N-(4-(4-methylpiperazin-1-yl)phenyl)-5-phenyl-1H-pyrazolo[4,3-d]pyrimidin-7-amine]
SYK kinase
  Ki: < 10 nM
LRRK2
  IC50: 100 to 1000 nM
MYLK
  IC50: < 5000 nM

## CN1CCN(c2ccc(Nc3nc(-c4ccc(N5CCCC5)nc4)nc4cn[nH]c34)cc2)CC1 [Example #46, N-(4-(4-methylpiperazin-1-yl)phenyl)-5-(6-(pyrrolidin-1-yl)pyridin-3-yl)-1H-pyrazolo[4,3-d]pyrimidin-7-amine]
SYK kinase
  Ki: < 10 nM
LRRK2
  IC50: 10 to 100 nM
MYLK
  IC50: < 5000 nM

## COc1ccc(-c2nc(Nc3ccc(OC)c(OC)c3)c3[nH]ncc3n2)cc1 [Example #58, N-(3,4-dimethoxyphenyl)-5-(4-methoxyphenyl)-1H-pyrazolo[4,3-d]pyrimidin-7-amine]
SYK kinase
  Ki: < 10 nM
LRRK2
  IC50: 100 to 1000 nM
MYLK
  IC50: < 5000 nM

## COc1cccc(-c2nc(Nc3ccc(N4CCN(C)CC4)cc3)c3[nH]ncc3n2)c1 [Example #62, 5-(3-methoxyphenyl)-N-(4-(4-methylpiperazin-1-yl)phenyl)-1H-pyrazolo[4,3-d]pyrimidin-7-amine]
SYK kinase
  Ki: < 10 nM
LRRK2
  IC50: 10 to 100 nM
MYLK
  IC50: < 5000 nM

## COc1ccc(Nc2nc(-c3cccs3)nc3cn[nH]c23)cc1OC [Example #68, N-(3,4-dimethoxyphenyl)-5-(thiophen-2-yl)-1H-pyrazolo[4,3-d]pyrimidin-7-amine]
SYK kinase
  Ki: < 10 nM
LRRK2
  IC50: 100 to 1000 nM
MYLK
  IC50: < 5000 nM

## CN1CCN(c2ccc(Nc3nc(-c4cccs4)nc4cn[nH]c34)cc2)CC1 [Example #70, N-(4-(4-methylpiperazin-1-yl)phenyl)-5-(thiophen-2-yl)-1H-pyrazolo[4,3-d]pyrimidin-7-amine]
SYK kinase
  Ki: < 10 nM
LRRK2
  IC50: 10 to 100 nM
MYLK
  IC50: < 5000 nM

## CN1CCN(c2ccc(Nc3nc(-c4ccsc4)nc4cn[nH]c34)cc2)CC1 [Example #74, N-(4-(4-methylpiperazin-1-yl)phenyl)-5-(thiophen-3-yl)-1H-pyrazolo[4,3-d]pyrimidin-7-amine]
SYK kinase
  Ki: < 10 nM
LRRK2
  IC50: 100 to 1000 nM
MYLK
  IC50: < 5000 nM

## Oc1cccc(Nc2nc(-c3cccs3)nc3cn[nH]c23)c1 [Example #83, 3-((5-(thiophen-2-yl)-1H-pyrazolo[4,3-d]pyrimidin-7-yl)amino)phenol]
SYK kinase
  Ki: 10 to 100 nM
LRRK2
  IC50: 100 to 1000 nM
MYLK
  IC50: < 5000 nM

## c1csc(-c2nc(Nc3ccc4c(c3)NCCO4)c3[nH]ncc3n2)c1 [Example #91, N-(5-(thiophen-2-yl)-1H-pyrazolo[4,3-d]pyrimidin-7-yl)-3,4-dihydro-2H-benzo[b][1,4]oxazin-6-amine]
SYK kinase
  Ki: < 10 nM
LRRK2
  IC50: 10 to 100 nM
MYLK
  IC50: < 5000 nM

## CN1CCN(c2ccc(Nc3nc(-c4nc5ccccc5s4)nc4cn[nH]c34)cc2)CC1 [Example #95, 5-(benzo[d]thiazol-2-yl)-N-(4-(4-methylpiperazin-1-yl)phenyl)-1H-pyrazolo[4,3-d]pyrimidin-7-amine]
SYK kinase
  Ki: < 10 nM
LRRK2
  IC50: 10 to 100 nM
MYLK
  IC50: < 5000 nM

## c1ccc2sc(-c3nc(Nc4ccc5c(c4)NCCO5)c4[nH]ncc4n3)nc2c1 [Example #97, N-(5-(benzo[d]thiazol-2-yl)-1H-pyrazolo[4,3-d]pyrimidin-7-yl)-3,4-dihydro-2H-benzo[b][1,4]oxazin-6-amine]
SYK kinase
  Ki: 10 to 100 nM
LRRK2
  IC50: 100 to 1000 nM
MYLK
  IC50: < 5000 nM

## CN1CCN(c2ccc(Nc3nc(-c4cccc(-c5cccnc5)c4)nc4cn[nH]c34)cc2)CC1 [Example #99, N-(4-(4-methylpiperazin-1-yl)phenyl)-5-(3-(pyridin-3-yl)phenyl)-1H-pyrazolo[4,3-d]pyrimidin-7-amine]
SYK kinase
  Ki: < 10 nM
LRRK2
  IC50: 100 to 1000 nM
MYLK
  IC50: < 5000 nM

## CN(C)c1cccc(Nc2nc(-c3ccsc3)nc3cn[nH]c23)c1 [Example #114, N1,N1-dimethyl-N3-(5-(thiophen-3-yl)-1H-pyrazolo[4,3-d]pyrimidin-7-yl)benzene-1,3-diamine]
SYK kinase
  Ki: 10 to 100 nM
LRRK2
  IC50: 100 to 1000 nM
MYLK
  IC50: < 5000 nM

## Nc1cccc(Nc2nc(-c3ccsc3)nc3cn[nH]c23)c1 [Example #117, N1-(5-(thiophen-3-yl)-1H-pyrazolo[4,3-d]pyrimidin-7-yl)benzene-1,3-diamine]
SYK kinase
  Ki: < 10 nM
LRRK2
  IC50: 10 to 100 nM
MYLK
  IC50: < 5000 nM

## CN1CCN(c2ccc(Nc3nc(-c4ccsc4)nc4cn[nH]c34)cn2)CC1 [Example #118, N-(6-(4-methylpiperazin-1-yl)pyridin-3-yl)-5-(thiophen-3-yl)-1H-pyrazolo[4,3-d]pyrimidin-7-amine]
SYK kinase
  Ki: < 10 nM
LRRK2
  IC50: 10 to 100 nM
MYLK
  IC50: < 5000 nM

## CN(C)Cc1ccc(Nc2nc(-c3ccccc3)nc3cn[nH]c23)cc1 [Example #120, N-(4-((dimethylamino)methyl)phenyl)-5-phenyl-1H-pyrazolo[4,3-d]pyrimidin-7-amine]
SYK kinase
  Ki: 10 to 100 nM
LRRK2
  IC50: 100 to 1000 nM
MYLK
  IC50: < 5000 nM

## c1ccn2cc(-c3nc(Nc4ccc5cn[nH]c5c4)c4[nH]ncc4n3)nc2c1 [Example #127, 5-(imidazo[1,2-a]pyridin-2-yl)-N-(1H-indazol-6-yl)-1H-pyrazolo[4,3-d]pyrimidin-7-amine]
SYK kinase
  Ki: 10 to 100 nM
LRRK2
  IC50: 100 to 1000 nM
MYLK
  IC50: < 5000 nM

## COc1cccc(-c2nc(Nc3ccc(CN4CCN(C)CC4)cc3)c3[nH]ncc3n2)c1 [Example #131, 5-(3-methoxyphenyl)-N-(4-((4-methylpiperazin-1-yl)methyl)phenyl)-1H-pyrazolo[4,3-d]pyrimidin-7-amine]
SYK kinase
  Ki: < 10 nM
LRRK2
  IC50: 100 to 1000 nM
MYLK
  IC50: < 5000 nM

## COc1cccc(-c2nc(Nc3ccc(CN4CCCC4)cc3)c3[nH]ncc3n2)c1 [Example #132, 5-(3-methoxyphenyl)-N-(4-(pyrrolidin-1-ylmethyl)phenyl)-1H-pyrazolo[4,3-d]pyrimidin-7-amine]
SYK kinase
  Ki: < 10 nM
LRRK2
  IC50: 100 to 1000 nM
MYLK
  IC50: < 5000 nM

## CN1CCN(C(=O)c2ccc(Nc3nc(-c4cccs4)nc4cn[nH]c34)cc2)CC1 [Example #134, (4-methylpiperazin-1-yl)(4-((5-(thiophen-2-yl)-1H-pyrazolo[4,3-d]pyrimidin-7-yl)amino)phenyl)methanone]
SYK kinase
  Ki: < 10 nM
LRRK2
  IC50: 100 to 1000 nM
MYLK
  IC50: < 5000 nM

## CC(=O)N1CCN(c2ccc(Nc3nc(-c4cccs4)nc4cn[nH]c34)cc2)CC1 [Example #138, 1-(4-(4-((5-(thiophen-2-yl)-1H-pyrazolo[4,3-d]pyrimidin-7-yl)amino)phenyl)piperazin-1-yl)ethan-1-one]
SYK kinase
  Ki: < 10 nM
LRRK2
  IC50: 100 to 1000 nM
MYLK
  IC50: < 5000 nM
